{"source": "paper PMC4158172", "about": "(European Journal of Clinical Pharmacology, 2014)", "key": {"[1]": {"assay": "Plasma metabolic profile of DTG (pooled plasma)", "type": "in vivo, human", "conditions": "pooled plasma, both treatment groups", "procedure": "(§1) There was no washout between treatment periods. All doses were administered in the fasting state.\n(§2) Urine samples were collected at intervals of 0 to 12 hours and 12 to 24 hours after each treatment period. Individual urine pools were produced for each subject in a given treatment group by combining proportional volumes (% of total volume) from the 0- to 12-hours and 12- to 24-hours collections. Individual pooled human plasma samples were prepared for each subject and treatment group.\nEach pooled plasma sample was mixed with aqueous EDTA disodium salt solution (10 mg/mL) and subsequently extracted 3 times with methanol and acetonitrile. Pooled urine samples were lyophilised and the residue was reconstituted in water:methanol (90:10 v/v). Drug-related components in plasma extracts and urine samples were separated on a 100 × 4.6 mm 3.5-micron Symmetry C18 column (Waters Associates) at 40°C by a step-gradient elution method with a mobile phase composition of water:acetonitrile containing 0.1% ammonium acetate starting at 95:5 (v/v) and ending at 5:95 (v/v) over 50 minutes. The eluate was analysed by multistage mass spectrometry (MSn) using an LTQ Orbitrap™ Hybrid Mass Spectrometer with Xcalibur 2.07 software (Thermo Fisher Scientific, Bremen, Germany). […]"}, "[2]": {"assay": "Urinary metabolic profile of DTG (pooled urine)", "type": "in vivo, human", "conditions": "pooled urine 0-24 h, n=12, mean (standard deviation)", "procedure": "as §1, §2\nEach pooled plasma sample was mixed with aqueous EDTA disodium salt solution (10 mg/mL) and subsequently extracted 3 times with methanol and acetonitrile. Pooled urine samples were lyophilised and the residue was reconstituted in water:methanol (90:10 v/v). Drug-related components in plasma extracts and urine samples were separated on a 100 × 4.6 mm 3.5-micron Symmetry C18 column (Waters Associates) at 40°C by a step-gradient elution method with a mobile phase composition of water:acetonitrile containing 0.1% ammonium acetate starting at 95:5 (v/v) and ending at 5:95 (v/v) over 50 minutes. The eluate was analysed by multistage mass spectrometry (MSn) using an LTQ Orbitrap™ Hybrid Mass Spectrometer with Xcalibur 2.07 software (Thermo Fisher Scientific, Bremen, Germany). Data-dependent scanning using an accurate mass list, consisting of all previously characterised metabolites, was used in addition to analysis of pre-dose samples to aid in the distinction of drug-related material from endogenous components."}, "[3]": {"assay": "EFV plasma pharmacokinetics when co-administered with DTG, by CYP2B6 genotype", "conditions": "for AUC / Cmax / concentration at 24 h / Tmax / half-life: human; for AUC: AUC(0–τ); for Cmax: C max; for concentration at 24 h: C τ; for Tmax: T max; for half-life: t½", "procedure": "This was a phase I, open-label, single-sequence, two-period, steady-state study. Subjects received DTG at a dose of 50 mg (two 25 mg tablets) every 24 hours (q24h) for 5 days (period 1), and then the combination of morning DTG 50 mg and evening EFV 600 mg q24h was given for 14 days (period 2). There was no washout between treatment periods. All doses were administered in the fasting state. Serial PK plasma samples were collected after each period for DTG, and samples after period 2 were also collected for EFV. The metabolic profile of DTG was evaluated in plasma and urine using pooled samples for each subject to assist in establishing the mechanism of any potential drug interaction (see Supplementary Material).\nDolutegravir and EFV were measured in plasma samples using validated methods, which consisted of extraction from plasma by protein precipitation with acetonitrile containing [^15N^2H7]dolutegravir or [^2H4]-efavirenz as the internal standards, respectively. The plasma extracts were injected onto a 2.1 × 50 mm 3.5-micron XBridge™ C18 column (Waters Associates, Milford, MA, USA). Dolutegravir was eluted with a mobile phase consisting of 40 % acetonitrile in aqueous 0.1 % formic acid, and EFV was eluted with a mobile phase consisting of acetonitrile/0.1 % formic acid (65 % v/v) in a 5-mM ammonium acetate buffer containing 0.1 % acetic acid (35 % v/v). The eluates were detected by using a Sciex API 4000™ (AB Sciex, Framingham, MA, USA) equipped with a TurboIonSpray® ionisation source with multiple reaction monitoring (DTG positive ion mode m/z 420 > 277; internal standard m/z 428 > 277; EFV negative ion mode m/z 314 > 243; internal standard m/z 318 > 247). Data acquisition and processing were performed with Analyst 1.4.2 software (AB Sciex), and linear regression analysis calculations were performed using the Study Management System, SMS™ 2000 v.2.2 (GlaxoSmithKline, Research Triangle Park, NC, USA). The calibration range for DTG was 0.020 to 20 μg/mL and for EFV was 0.10 to 20 μg/mL. Quality control samples prepared separately at three concentrations were stored with study samples and analysed with each batch of samples against separately prepared calibration standards.\nA non-compartmental PK analysis of the concentration-time data was performed with WinNonlin (version 5.2, Pharsight Corporation, Mountain View, CA, USA). Plasma PK parameters for both DTG and EFV were calculated using actual recorded times for each treatment. Parameters that were determined included AUC from time zero to the end of the dosage interval (AUC(0–τ)), maximum observed plasma concentration (C max), the time of maximum observed plasma concentration (T max) and plasma concentration at the end of the dosing interval (C τ).\nA blood sample was taken from 9 of 12 subjects in the EFV study who gave consent for pharmacogenetic analysis, and genomic DNA was extracted. Twenty-three polymorphisms from five genes/gene regions previously implicated in EFV metabolism were genotyped (Table 1). Only polymorphisms possibly conferring reduced enzyme activity were investigated. Due to the small number of samples available, no statistical modelling was planned or performed. However, the probabilities for each possible experimental outcome, based on the distribution of polymorphism carrier status between cases and controls and an assumption of no genetic association, were calculated a priori."}, "[4]": {"conditions": "EFV product label, cited from earlier work"}, "[5]": {"conditions": "in vivo; cited from earlier work"}, "[6]": {"conditions": "with TPV/r; cited from earlier work"}, "[7]": {"assay": "Safety evaluations, interaction study with TPV/r", "type": "in vivo, human", "procedure": "In both studies, safety evaluations [adverse event (AE) reporting, clinical chemistry laboratory tests, urinalysis, vital signs and electrocardiogram] were performed throughout the study. Given the known hepatotoxicity profile of TPV/r, more frequent monitoring of liver chemistries was performed in the TPV/r study, and conservative stopping criteria were employed such that any subject reaching a grade 2 increase in alanine aminotransferase (ALT) or aspartate aminotransferase (AST) was discontinued from the trial. Both trials were conducted as inpatient studies with subjects housed in the unit for the duration of the study. The studies were conducted in accordance with the principles of the Declaration of Helsinki. A written informed consent was obtained from all subjects, and both protocols were approved by the institutional review board of the study sites."}, "CYP3A4/5": {"system": "CYP3A4/5", "conditions": "in vivo, cited from earlier work"}, "[8]": {"set-up": "method as in PMID 18769354", "conditions": "EVG 200 mg once daily with TPV/r 500/200 mg twice daily, healthy subjects; cited from earlier work"}, "[9]": {"conditions": "in vivo, EFV with DTG, CYP2B6*1/*1 or *1/*6 subjects n=6, geometric mean (CV%)"}, "[10]": {"conditions": "in vivo, EFV with DTG, CYP2B6*6/*6 subjects n=3, geometric mean (CV%)"}, "[11]": {"conditions": "in vivo, EFV with DTG, all subjects n=12, geometric mean (CV%)"}}, "note": "Like-named read-outs stand apart in the source and are kept apart here."}
{"molecule": "C[C@@H]1CCO[C@H]2Cn3cc(C(=O)NCc4ccc(F)cc4F)c(=O)c(O[C@@H]4O[C@H](C(=O)O)[C@@H](O)[C@H](O)[C@H]4O)c3C(=O)N12", "note": "[M2]", "values": [{"measurement": "amount in plasma relative to DTG (mean)", "setting": "[1]", "value": "< 2 % of DTG"}, {"measurement": "% DTG", "setting": "[2]; DTG 50 mg + EFV q24h", "value": "1,633 (607) %"}, {"measurement": "% Total drug-related response", "setting": "[2]; DTG 50 mg + EFV q24h", "value": "79.8 (9.3) %"}, {"measurement": "% DTG", "setting": "[2]; DTG 50 mg q24h", "value": "1,188 (275) %"}, {"measurement": "% Total drug-related response", "setting": "[2]; DTG 50 mg q24h", "value": "72.8 (10.9) %"}]}
{"molecule": "C[C@@H]1CCO[C@H]2Cn3cc(C(=O)NC(O)c4ccc(F)cc4F)c(=O)c(O)c3C(=O)N12", "note": "(stereo partly shown) [M3]", "values": [{"measurement": "% DTG", "setting": "[2]; DTG 50 mg + EFV q24h", "value": "38.8 (48.6) %"}, {"measurement": "% Total drug-related response", "setting": "[2]; DTG 50 mg + EFV q24h", "value": "1.9 (2.4) %"}, {"measurement": "% DTG", "setting": "[2]; DTG 50 mg q24h", "value": "51.9 (57.3) %"}, {"measurement": "% Total drug-related response", "setting": "[2]; DTG 50 mg q24h", "value": "2.9 (2.6) %"}]}
{"molecule": "O=C1Nc2ccc(Cl)cc2[C@@](C#CC2CC2)(C(F)(F)F)O1", "note": "[EFV, efavirenz]", "values": [{"measurement": "C τ", "setting": "[3]; EFV with DTG, CYP2B6*1/*1 or *1/*6 subjects n=6, geometric mean (CV%)", "value": "1.45 (40) μg/mL"}, {"measurement": "AUC", "setting": "[3]; [9]", "value": 55700, "unit": "ng·h/mL"}, {"measurement": "AUC", "setting": "[3]; [10]", "value": 174000, "unit": "ng·h/mL"}, {"measurement": "AUC", "setting": "[3]; [11]", "value": 84200, "unit": "ng·h/mL"}, {"measurement": "Cmax", "setting": "[3]; in vivo, EFV 600 mg q24h with DTG 50 mg, all subjects n=12, geometric mean (CV%)", "value": 6020, "unit": "ng/mL"}, {"measurement": "Cmax", "setting": "[3]; [9]", "value": 4520, "unit": "ng/mL"}, {"measurement": "Cmax", "setting": "[3]; [10]", "value": 9500, "unit": "ng/mL"}, {"measurement": "concentration at 24 h", "setting": "[3]; [10]", "value": 5850, "unit": "ng/mL"}, {"measurement": "concentration at 24 h", "setting": "[3]; [11]", "value": 2410, "unit": "ng/mL"}, {"measurement": "Tmax", "setting": "[3]; in vivo, EFV with DTG, CYP2B6*1/*1 or *1/*6 subjects n=6, median (range)", "value": 2.5, "unit": "h"}, {"measurement": "Tmax", "setting": "[3]; in vivo, EFV with DTG, CYP2B6*6/*6 subjects n=3, median (range)", "value": 2, "unit": "h"}, {"measurement": "Tmax", "setting": "[3]; in vivo, EFV with DTG, all subjects n=12, median (range)", "value": 2.5, "unit": "h"}, {"measurement": "half-life", "setting": "[3]; [9]", "value": 15.6, "unit": "h"}, {"measurement": "half-life", "setting": "[3]; [10]", "value": 39.1, "unit": "h"}, {"measurement": "half-life", "setting": "[3]; [11]", "value": 22.2, "unit": "h"}, {"measurement": "EFV exposures in CYP2B6*6 homozygous subjects relative to CYP2B6*1/*1 or *1/*6 carriers", "setting": "[3]; in vivo", "value": "two- to fourfold higher"}, {"measurement": "mean C max", "setting": "[4]", "value": 4070, "unit": "ng/mL"}, {"measurement": "Cmax", "setting": "[4]; read-out: mean C max", "value": 12.9, "unit": "µM"}]}
{"molecule": "CC(C)CN(C[C@@H](O)[C@H](Cc1ccccc1)NC(=O)O[C@H]1CCOC1)S(=O)(=O)c1ccc(N)cc1", "note": "[amprenavir]", "values": [{"measurement": "decrease of Cmin", "setting": "[5]", "value": 56, "unit": "%"}]}
{"molecule": "Cc1nnc(C(=O)NC(C)(C)c2nc(C(=O)NCc3ccc(F)cc3)c(O)c(=O)n2C)o1", "note": "[RAL, raltegravir]", "values": [{"measurement": "decrease of AUC(0–12)", "setting": "[6]", "value": 24, "unit": "%"}]}
{"molecule": "tipranavir/ritonavir [TPV/r]", "values": [{"measurement": "subjects reporting nausea", "setting": "[7]; healthy subjects n=18", "value": 22, "unit": "%"}, {"measurement": "subjects reporting vomiting", "setting": "[7]; healthy subjects n=18", "value": 11, "unit": "%"}, {"measurement": "subjects with grade 2 increases in AST", "setting": "[7]; n=18, began during TPV/r alone (period 2)", "value": "Three"}, {"measurement": "subjects with grade 2 increases in ALT leading to discontinuation", "setting": "[7]; n=18, began during TPV/r alone (period 2), considered related to TPV/r", "value": "Four"}, {"measurement": "effect on CYP3A4/5", "setting": "CYP3A4/5; after a single dose", "value": "moderately inhibits"}, {"measurement": "effect on CYP3A4/5", "setting": "CYP3A4/5; after repeated dosing", "value": "induces"}]}
{"molecule": "CC(C)(C)NC(=O)[C@@H]1C[C@@H]2CCCC[C@@H]2CN1C[C@@H](O)[C@H](Cc1ccccc1)NC(=O)[C@H](CC(N)=O)NC(=O)c1ccc2ccccc2n1", "note": "[saquinavir]", "values": [{"measurement": "decrease of Cmin", "setting": "[5]", "value": 80, "unit": "%"}]}
{"molecule": "COc1cc2c(cc1Cc1cccc(Cl)c1F)c(=O)c(C(=O)O)cn2[C@H](CO)C(C)C", "note": "[EVG, Elvitegravir]", "values": [{"measurement": "changes in PK", "setting": "[8]", "value": "No significant changes"}]}
